Counter-ions that a name gives are not always drawn.
Legend:
[1] = test system: inducible nitric oxide synthase activity (plasma nitrite/nitrate levels); experiment: In vivo assay: LPS-induced increase in plasma nitrite/nitrate; conditions: Rattus norvegicus; rats, endotoxin (LPS) i.p., oral administration, 5 hours post-treatment; read-out: ED50, inhibition of LPS-induced increase in plasma nitrite/nitrate levels
Procedure: Plasma nitrite/nitrate levels can be determined 5 hours post-treatment.

[2] = molecular target: T1, Human inducible NOS (hiNOS) (Homo sapiens, UniProt P35228); experiment: Citrulline assay for nitric oxide synthase, hiNOS; format: biochemical; conditions: recombinant enzyme, 30 μM L-arginine, 37° C. 15 minutes
T1 construct: made in house; host or cells: Sf9 insect cells (baculovirus vector)
Excerpt: (§1) Nitric oxide synthase (NOS) activity can be measured by monitoring the conversion of L-[2,3-^3H]-arginine to L-[2,3-^3H]-citrulline (Bredt and Snyder, Proc. Natl. Acad. Sci. U.S.A., 87, 682-685, 1990 and Moore et al, J. Med. Chem., 39, 669-672, 1996). Human inducible NOS (hiNOS), human endothelial constitutive NOS (hecNOS) and human neuronal constitutive NOS (hncNOS) are each cloned from RNA extracted from human tissue. The cDNA for human inducible NOS (hiNOS) is isolated from a λcDNA library made from RNA extracted from a colon sample from a patient with ulcerative colitis. The cDNA for human endothelial constitutive NOS (hecNOS) is isolated from a λcDNA library made from RNA extracted from human umbilical vein endothelial cells (HUVEC) and the cDNA for human neuronal constitutive NOS (hncNOS) is isolated from a λcDNA library made from RNA extracted from human cerebellum obtained from a cadaver. The recombinant enzymes are expressed in Sf9 insect cells using a baculovirus vector (Rodi et al, in The Biology of Nitric Oxide, Pt. 4: Enzymology. Biochemistry and Immunology; Moncada, S., Feelisch, M., Busse, R., Higgs, E., Eds.; Portland Press Ltd.: London, 1995; pp 447-450). Enzyme activity is isolated from soluble cell extracts and partially purified by DEAE-Sepharose chromatography. To measure NOS activity, 10 μL of enzyme is added to 40 μL of 50 mM Tris (pH 7.6) in the presence or absence of test compounds and the reaction initiated by the addition of 50 μL of a reaction mixture containing 50 mM Tris (pH 7.6), 2.0 mg/mL bovine serum albumin, 2.0 mM DTT, 4.0 mM CaCl2, 20 μM FAD, 100 μM tetrahydrobiopterin, 0.4 mM NADPH and 60 μM L-arginine containing 0.9 μCi of L-[2,3-^3H]-arginine. The final concentration of L-arginine in the assay is 30 μM. For hecNOS or hncNOS, calmodulin is included at a final concentration of 40-100 nM. […] After mixing the resin is allowed to settle and L-[2,3-^3H]-Citrulline formation is determined by counting aliquots of the supernatant with a liquid scintillation counter. […]

[3] = molecular target: T2, human endothelial constitutive NOS (hecNOS) (Homo sapiens, UniProt P29474); experiment: Citrulline assay for nitric oxide synthase, hecNOS; format: biochemical; conditions: recombinant enzyme, 30 μM L-arginine, calmodulin 40-100 nM
T2 construct: made in house; host or cells: Sf9 insect cells (baculovirus vector)
Excerpt: as §1

[4] = molecular target: T3, human neuronal constitutive NOS (hncNOS) (Homo sapiens, UniProt P29475); experiment: Citrulline assay for nitric oxide synthase, hncNOS; format: biochemical; conditions: recombinant enzyme, 30 μM L-arginine, calmodulin 40-100 nM
T3 construct: made in house; host or cells: Sf9 insect cells (baculovirus vector)
Excerpt: as §1

Structure (SMILES) | ED50 [1] [mg/kg] | IC50 [2] [µM] | IC50 [3] [µM] | IC50 [4] [µM]
CC(=N)NC/C(C)=C\CC[C@H](N)C(=O)O [Example 1, (2S,5Z)-2-amino-6-methyl-7-[(1-iminoethyl)amino]-5-heptenoic acid, dihydrochloride] | < 0.1 |  |  | 
CC(=N)NC/C(C)=C/CC[C@H](N)C(=O)O [Example 2, (2S,5E)-2-amino-6-methyl-7-[(1-iminoethyl)amino]-5-heptenoic acid, dihydrochloride] |  | 172 | 1490 | 523
CC(=N)NC/C=C\CC[C@H](N)C(=O)O [Example 6, (2S,5Z)-2-amino-7-[(1-iminoethyl)amino]-5-heptenoic acid, dihydrochloride] |  | 0.9 | 89 | 8
CC(=N)NC/C=C/CC[C@H](N)C(=O)O [Example 8, (2S,5E)-2-amino-7-[(1-iminoethyl)amino]-5-heptenoic acid, dihydrochloride] |  | 20 | 418 | 150

Source: patent US6545170B2, “2-amino-5, 6 heptenoic acid derivatives useful as nitric oxide synthase inhibitors” (Pharmacia Corporation, priority 2000, dated 2003)
